≈ marks a conversion by molar mass, not a printed value. Where two headings read alike, the source gives them in different places. Numbered stars: 1 amine (or outer) side, 2 acyl side, 3 side chain; on linkers, the order of the positions; unused ones are H or OH. Bridge positions count the residues as written; N and C are the ends. Square brackets hold non-standard residues; d marks the D form. Peptide text beside a SMILES is read from it. * marks the point of attachment. X7 = CC[C@H](C)[C@@H](N[*:1])[C@@H](O)CC(=O)O[C@H](C(=NO)[C@H](C)C(=O)[*:2])C(C)C; X1 = CC[C@H](C)[C@@H](N[*:1])[C@@H](O)CC(=O)O[C@H](C(=O)[C@H](C)C(=O)[*:2])C(C)C; X3 = CC[C@H](C)[C@H](N[*:1])[C@@H](O)CC(=O)O[C@H](C(=O)[C@H](C)C(=O)[*:2])C(C)C; NMeY = CN[C@@H](Cc1ccc(O)cc1)C(=O)O; aThr = C[C@H](O)[C@H](N)C(=O)O; dNMeL = CN[C@H](CC(C)C)C(=O)O; Isobutyryl = CC(C)C(=O)*; Aze = O=C(O)[C@@H]1CCN1; Pyruvoyl = CC(=O)C(=O)*; Propionyl = CCC(=O)*
How the values were obtained:
[1] = test system: Nb2 cells, rat T-cell node lymphoma; assay: Competitive binding with [3H]didemnin B to Nb2 cells; details: 3 h at 37° C.
Protocol: The immunosuppressive assay was performed by measuring competitive binding of tested compounds with [^3 H]didemnin B to Nb2 cells, rat T-cell node lymphoma. See, Russell, D. H., et al., J. Immunology, 1987, 138, 276-284.
^a Competing didemnins incubated with approximately 25 ng of [^3

[2] = test system: cells of the VIV assay (not named)
[3] = test system: BHK = Baby hamster kidney cells
L1210 [4] = test system: L1210
Visna virus (VIV) = type: cell-based; design: key to % Protection / VIV Protection: I, indeterminate
[5] = test system: L1210 murine leukemia cells; details: Table 9
[6] = test system: DNA synthesis in Nb2 node lymphoma cells; assay: Inhibition of ongoing DNA synthesis in prolactin-stimulated Nb2 cells; type: cell-based, rat; details: Nb2 cells stimulated with prolactin for 24 h
Protocol: Also inhibitions of protein and DNA synthesis of several compounds were measured using Nb2 node lymphoma cells which were stimulated by a treatment of cells with prolactin. (ibid.)
^a Nb2 cells were stimulated with prolactin for 24 h, then exposed to
^b 50% Inhibitory concentration, calculated with linear regression

L1210 [7] = assay: L1210 cytotoxicity, inhibition at fixed doses (Table 10); type: cell-based, murine

Row | SMILES | Inhibition of [3H]didemnin B binding (%) ([1]; 0.001 μg/mL) | Inhibition of [3H]didemnin B binding (%) ([1]; 0.01 μg/mL) | Inhibition of [3H]didemnin B binding (%) ([1]; 0.1 μg/mL) | Inhibition of [3H]didemnin B binding (%) ([1]; 1 μg/mL) | BHK [3] | VIV Protection (Visna virus (VIV)) | Cytotoxicity L1210 IC50 [5] [ng/mL] | also measured
1 | CCC(=O)N(C)[C@H](CC(C)C)C(=O)N[C@@H]1C(=O)N[C@H]([C@@H](C)CC)[C@@H](O)CC(=O)O[C@@H](C(C)C)C(=O)[C@H](C)C(=O)N[C@@H](CC(C)C)C(=O)N2CCC[C@H]2C(=O)N(C)[C@@H](Cc2ccc(OC)cc2)C(=O)O[C@@H]1C [(N-Propionyl)Didemnin A (98), N-propionyl-didemnin A] (Propionyl-[dNMeL]T[X1]LP[NMeY](Me); ester 2-C) | 3 | 2 | 40 | 72 | 0, PT | I | 0.3 | VIV Toxicity [2]: 92; cytotoxicity (result in words) (L1210 [4]; Table 1 footnote and text): retained the cytotoxicity of didemnin B; Cytotoxicity percent L1210 inhibition (L1210 [4]; dose 5 ng/mL): 93%; Cytotoxicity percent L1210 inhibition (L1210 [4]; dose 12.5 ng/mL): 95%; Cytotoxicity percent L1210 inhibition (L1210 [4]; dose 25 ng/mL): 95%
2 | Cc1cn([C@H]2C[C@H](N=[N+]=[N-])[C@@H](CO)O2)c(=O)[nH]c1=O [AZT, reference compound] |  |  |  |  |  |  |  | % Cytotoxicity ([2]; 1 µM): 5; % Cytotoxicity ([2]; 3 µM): 7; % Cytotoxicity ([2]; 10 µM): 11; % Cytotoxicity ([2]; 30 µM): 14
3 | CC[C@H](C)[C@H]1NC(=O)[C@@H](NC(=O)[C@@H](CC(C)C)NC)[C@@H](C)OC(=O)[C@H](Cc2ccc(OC)cc2)N(C)C(=O)[C@@H]2CCCN2C(=O)[C@H](CC(C)C)NC(=O)[C@@H](C)C(=O)[C@H](C(C)C)OC(=O)C[C@@H]1O [Didemnin A (1), Didemnin A, reference compound] (H-[dNMeL]T[X1]LP[NMeY](Me); ester 2-C) | 3 | 8 | 20 | 35 |  | < 0 | 30 | IC50 DNA [6]: 2000 ng/mL (≈ 2120 nM); Inhibition (%) (L1210 [7]; dose 25 ng/mL, tested 4/22/1990): 80%; Inhibition (%) (L1210 [7]; dose 250 ng/mL, tested 4/22/1990): 100%; Cytotoxicity percent L1210 inhibition (L1210 [4]; dose 5 ng/mL): 0%; Cytotoxicity percent L1210 inhibition (L1210 [4]; dose 12.5 ng/mL): 19%; Cytotoxicity percent L1210 inhibition (L1210 [4]; dose 25 ng/mL): 25%
4 | CC[C@H](C)[C@H]1NC(=O)[C@@H](NC(=O)[C@@H](CC(C)C)N(C)C(=O)[C@@H]2CCCN2C(=O)C(C)O)[C@@H](C)OC(=O)[C@H](Cc2ccc(OC)cc2)N(C)C(=O)[C@@H]2CCCN2C(=O)[C@H](CC(C)C)NC(=O)[C@@H](C)C(=O)[C@H](C(C)C)OC(=O)C[C@@H]1O (some centres unmarked) [Didemnin B (17), Didemnin B, reference compound] | 3 | 7 | 59 | 77 |  |  | 0.5 | IC50 DNA [6]: 90 ng/mL (≈ 80.9 nM); Inhibition (%) (L1210 [7]; dose 25 ng/mL, tested 4/18/1991): 99%; Inhibition (%) (L1210 [7]; dose 250 ng/mL, tested 4/18/1991): 99%; Cytotoxicity percent L1210 inhibition (L1210 [4]; dose 5 ng/mL): 93%; Cytotoxicity percent L1210 inhibition (L1210 [4]; dose 12.5 ng/mL): 95%; Cytotoxicity percent L1210 inhibition (L1210 [4]; dose 25 ng/mL): 95%; IC50 (L1210 cells): 0.5 ng/mL (≈ 0.449 nM)
5 | CC[C@H](C)[C@H]1NC(=O)[C@@H](NC(=O)[C@@H](CC(C)C)N(C)C(=O)[C@@H](N)CC(C)C)[C@@H](C)OC(=O)[C@H](Cc2ccc(OC)cc2)N(C)C(=O)[C@@H]2CCCN2C(=O)[C@H](CC(C)C)NC(=O)[C@@H](C)C(=O)[C@H](C(C)C)OC(=O)C[C@@H]1O [N-(L-Leu)Didemnin A (99), N-(L-Leu)didemnin A] (H-L[dNMeL]T[X1]LP[NMeY](Me); ester 3-C) |  |  |  |  | 0, PT |  | 4 | 
6 | CC[C@H](C)[C@H]1NC(=O)[C@@H](NC(=O)[C@@H](CC(C)C)N(C)C(=O)[C@@H]2CCCN2)[C@@H](C)OC(=O)[C@H](Cc2ccc(OC)cc2)N(C)C(=O)[C@@H]2CCCN2C(=O)[C@H](CC(C)C)NC(=O)[C@@H](C)C(=O)[C@H](C(C)C)OC(=O)C[C@@H]1O [N-(L-Pro)Didemnin A (100), N-(L-Prolyl) didemnin A] (H-P[dNMeL]T[X1]LP[NMeY](Me); ester 3-C) |  |  |  |  | 0, PT | < 0 | 4 | 
7 | CC[C@H](C)[C@@H]1NC(=O)[C@@H](NC(=O)[C@@H](CC(C)C)N(C)C(C)=O)[C@H](C)OC(=O)[C@H](Cc2ccc(OC)cc2)N(C)C(=O)[C@@H]2CCCN2C(=O)[C@H](CC(C)C)NC(=O)[C@@H](C)C(=O)[C@H](C(C)C)OC(=O)C[C@@H]1O [N-Acetyldidemnin A (54), N-Acetyl didemnin A] (Ac-[dNMeL][aThr][X3]LP[NMeY](Me); ester 2-C) | 2 | 12 | 72 | 80 |  | I | 0.3 | IC50 DNA [6]: 70 ng/mL (≈ 71 nM); VIV Toxicity [2]: 94; Cytotoxicity percent L1210 inhibition (L1210 [4]; dose 5 ng/mL): 89%; Cytotoxicity percent L1210 inhibition (L1210 [4]; dose 12.5 ng/mL): 93%; Cytotoxicity percent L1210 inhibition (L1210 [4]; dose 25 ng/mL): 94%
8 | COc1ccc(C[C@H]2C(=O)O[C@H](C)[C@H](NC(=O)C(CC(C)C)N(C)C(=O)[C@@H]3CCCN3C(=O)[C@H](C)O)C(=O)N[C@H](C(C)C)[C@@H](O)CC(=O)O[C@@H](C(C)C)C(=O)[C@H](C)C(=O)N[C@@H](CC(C)C)C(=O)N3CCC[C@H]3C(=O)N2C)cc1 (some centres unmarked) [Nordidemnin B (22), Nordidemnin B] |  |  |  |  | 0, PT | -25 | 1 | 
9 | CC[C@H](C)[C@H]1NC(=O)[C@@H](NC(=O)[C@@H](CC(C)C)NC)[C@@H](C)OC(=O)[C@H](Cc2ccc(OC)cc2)N(C)C(=O)[C@@H]2CCCN2C(=O)[C@H](CC(C)C)NC(=O)[C@@H](C)[C@@H](O)[C@H](C(C)C)OC(=O)C[C@@H]1OC(C)=O [O-Acetyl-[H2-(2S,3R,4S)Hip^2]didemnin A] | 0 | 0 | 2 | 19 |  |  | 1000 | CV-1 (CV-1 monkey kidney cells): 0
10 | CC[C@H](C)[C@H]1NC(=O)[C@@H](NC(=O)[C@@H](CC(C)C)NC)[C@@H](C)OC(=O)[C@H](Cc2ccc(OC)cc2)N(C)C(=O)[C@@H]2CCCN2C(=O)[C@H](CC(C)C)NC(=O)[C@@H](C)C(=O)[C@H](C(C)C)OC(=O)C[C@@H]1OC(C)=O [O-Acetyldidemnin A (114), O-Acetyldidemnin A] | 1 | 4 | 15 | 10 | 0, PT |  | 300 | IC50 DNA [6]: 270,000 ng/mL
11 | CC[C@H](C)[C@H]1NC(=O)[C@@H](NC(=O)[C@@H](CC(C)C)N(C)C(=O)[C@@H]2CCN2C(=O)C(C)=O)[C@@H](C)OC(=O)[C@H](Cc2ccc(OC)cc2)N(C)C(=O)[C@@H]2CCCN2C(=O)[C@H](CC(C)C)NC(=O)[C@@H](C)C(=O)[C@H](C(C)C)OC(=O)C[C@@H]1O [Pyruv-Azt-DA, Pyruv-Azt Didemnin A] (Pyruvoyl-[Aze][dNMeL]T[X1]LP[NMeY](Me); ester 3-C) |  |  |  |  |  |  |  | % Cytotoxicity [2]: 77; % Protection (Visna virus (VIV)): I; IC50 (L1210 cells): 0.6 ng/mL (≈ 0.547 nM)
12 | CC[C@H](C)[C@H]1NC(=O)[C@@H](NC(=O)[C@@H](CC(C)C)NC)[C@@H](C)OC(=O)[C@H](Cc2ccc(OC)cc2)N(C)C(=O)[C@@H]2CCCN2C(=O)[C@H](CC(C)C)NC(=O)[C@@H](C)C(=NO)[C@H](C(C)C)OC(=O)C[C@@H]1O [[HydroxyiminoHip^2]-Didemnin A (65), [HydroxyiminoHip^2]didemnin A] (H-[dNMeL]T[X7]LP[NMeY](Me); ester 2-C) |  |  |  |  |  |  | 20 | CV-1 (CV-1 monkey kidney cells): 0
13 | CC[C@H](C)[C@H]1NC(=O)[C@@H](NC(=O)[C@@H](CC(C)C)N(C)C(=O)[C@H]2CCCN2C(=O)C(C)C)[C@@H](C)OC(=O)[C@H](Cc2ccc(OC)cc2)N(C)C(=O)[C@@H]2CCCN2C(=O)[C@H](CC(C)C)NC(=O)[C@@H](C)C(=O)[C@H](C(C)C)OC(=O)C[C@@H]1O [[Isobutyryl^9 -D-Pro^8]didemnin B] (Isobutyryl-[dP][dNMeL]T[X1]LP[NMeY](Me); ester 3-C) | 0 | 0 | 25 | 69 | 0, PT |  | 10 | 
14 | CCC(=O)N1CCC[C@H]1C(=O)N(C)[C@H](CC(C)C)C(=O)N[C@@H]1C(=O)N[C@H]([C@@H](C)CC)[C@@H](O)CC(=O)O[C@@H](C(C)C)C(=O)[C@H](C)C(=O)N[C@@H](CC(C)C)C(=O)N2CCC[C@H]2C(=O)N(C)[C@@H](Cc2ccc(OC)cc2)C(=O)O[C@@H]1C [[Propionyl^9] Didemnin B (104), [Propionyl^9]didemnin B] (Propionyl-P[dNMeL]T[X1]LP[NMeY](Me); ester 3-C) |  |  |  |  | 0, PT | -113 | 0.2 | 
